Test [1] deals with MM.1S. The test is described as follows: CCK-8 proliferation, MM.1S. Type of test: cell-based. The conditions noted are these: Homo sapiens, MM1.S; Table B10, compounds designed based on the IRAK4 inhibitors; MM.1S cells; read-out: Inhibitory activity (IC50, nM) on tumor cell proliferation, MM.1S. The protocol: (§1) The tumor cells used herein were cultured in a cell culture medium listed in table A1 at 37°C in an incubator with 5% CO2. Prior to experimentation, all cell lines used were correctly identified by STR profiling, and tested negative for mycoplasma contamination using a mycoplasma detection kit through routine screenings. Table A1. Tumor cells and cell culture medium used in the present disclosure
(§2) IC50 values of the compounds of the present disclosure (including the compounds in Table 1, and compounds of examples) were measured using the Meilun Cell Counting Kit-8 kit from Dalian Meilun Biotech Co., Ltd. Assay details are as follows: tumor cells were seeded in a 96-well plate at a density listed in Table A2. After 24h, 100 µL of the inoculated cells were treated with 0.5µL of the compounds of the present disclosure (including the compounds in Tables 1 and 2, and compounds of examples) at 10 different successively decreasing concentrations (starting at the highest concentration of 10µM; 5-fold serial dilutions). After the cells were treated with the compounds of the present disclosure for a period of time, the cell viability detection reagent was added to the culture medium for cell viability assessment according to the instructions provided with the CCK-8 kit. […] The growth inhibition of the compounds of the present disclosure on cells was plotted by Prism Graphpad software, and the IC50 values of the compounds of the present disclosure were calculated therefrom. […] Seeding protocol and treatment time for tumor cells

The subject of test [2] is H2228. The test is described as follows: CCK-8 proliferation, NCI-H2228 (H2228). The test is classed as cell-based. As to conditions: Homo sapiens, NCI-H2228; Table B6, compounds designed based on the ALK inhibitors; H2228 cells; read-out: Inhibitory activity (IC50, nM) on tumor cell proliferation, H2228. The method, then: as §1, §2
Test [3] concerns SR. The test is described as follows: CCK-8 proliferation, SR. As to conditions: Homo sapiens; Table B6, compounds designed based on the ALK inhibitors; SR cells; read-out: Inhibitory activity (IC50, nM) on tumor cell proliferation, SR. Type of test: cell-based, Human. The method, then: as §1, §2
The subject of test [4] is MCF7. Description: CCK-8 proliferation, MCF7 (MCF-7). The test is classed as cell-based. The conditions noted are these: Homo sapiens, MCF7; Table B6, compounds designed based on the ALK inhibitors; MCF-7 cells; read-out: Inhibitory activity (IC50, nM) on tumor cell proliferation, MCF-7. The protocol:
as §1, §2

The test system of test [5] is H1975. Description: CCK-8 proliferation, NCI-H1975 (H1975). Type of test: cell-based, Human. The conditions noted are these: Homo sapiens, NCI-H1975; Table B6, compounds designed based on the ALK inhibitors; H1975 cells; read-out: Inhibitory activity (IC50, nM) on tumor cell proliferation, H1975. The method, then:
as §1, §2

Turning to `O=C1CCN(c2ccc(CN3CCC(n4cc(NC(=O)c5cnn6ccc(N7C[C@H]8C[C@@H]7CO8)nc56)c(C(F)F)n4)CC3)nc2)C(=O)N1` [GT-05053, 5-((1R,4R)-2-oxa-5-azabicyclo[2.2.1]heptan-5-yl)-N-(3-(difluoromethyl)-1-(1-((5-(2,4-dioxotetrahydropyrimidin-1(2H)-yl)pyridin-2-yl)methyl)piperidin-4-yl)-1H-pyrazol-4-yl)pyrazolo[1,5-a]pyrimidine-3-carboxamide], the IC50 in test [1] fell in the range of 500 to 1000 nM.

Consider `CCc1cc2c(cc1N1CCC(N3CCN(Cc4ccc(N5CCC(=O)NC5=O)cc4)CC3)CC1)C(C)(C)c1[nH]c3cc(C#N)ccc3c1C2=O` [GT-07307, 8-(4-(4-(4-(2,4-dioxotetrahydropyrimidin-1(2H)-yl)benzyl)piperazin-1-yl)piperidin-1-yl)-9-ethyl-6,6-dimethyl-11-oxo-6,11-dihydro-5H-benzo[b]carbazole-3-carbonitrile], for which the figures for the IC50 in test [2], in test [3] and in test [4] were 100 to 500 nM, 10 to 50 nM and 100 to 500 nM, respectively.

For `CCc1cc2c(cc1N1CCC(N3CCN(Cc4cccc(NC5CCC(=O)NC5=O)c4)CC3)CC1)C(C)(C)c1[nH]c3cc(C#N)ccc3c1C2=O` (centres unmarked) [GT-07313, 8-(4-(4-(3-((2,6-dioxopiperidin-3-yl)amino)benzyl)piperazin-1-yl)piperidin-1-yl)-9-ethyl-6,6-dimethyl-11-oxo-6,11-dihydro-5H-benzo[b]carbazole-3-carbonitrile], the values for the IC50 in test [2] and in test [3] were 100 to 500 nM and 1 to 10 nM, respectively.

On to `COc1cc(N2CCN(Cc3ccc(N4CCC(=O)NC4=O)nc3)CC2)ccc1Nc1ncc(Cl)c(Nc2ccccc2P(C)(C)=O)n1` [GT-07350, 1-(5-((4-(4-((5-chloro-4-((2-(dimethylphosphoryl)phenyl)amino)pyrimidin-2-yl)amino)-3-methoxyphenyl)piperazin-1-yl)methyl)pyridin-2-yl)dihydropyrimidine-2,4(1H,3H)-dione], for which the IC50 in test [2] fell in the range of 100 to 500 nM; in test [3] it was 50 to 100 nM; in test [5] it was 500 to 1000 nM.

As to `Cc1cc(Nc2ncc(Cl)c(Nc3ccccc3S(=O)(=O)C(C)C)n2)c(OC(C)C)cc1C1CCN(Cc2ccc(C3CCC(=O)NC3=O)c(F)c2)CC1` (centres unmarked) [GT-07365, 3-(4-((4-(4-((5-chloro-4-((2-(isopropylsulfonyl)phenyl)amino)pyrimidin-2-yl)amino)-5-isopropoxy-2-methylphenyl)piperidin-1-yl)methyl)-2-fluorophenyl)piperidine-2,6-dione], the IC50 in test [2] and in test [3] was 100 to 500 nM throughout.

For `Cc1cc(Nc2ncc(Cl)c(Nc3ccccc3S(=O)(=O)C(C)C)n2)c(OC(C)C)cc1C1CCN(Cc2cc(C3CCC(=O)NC3=O)cnc2F)CC1` (centres unmarked) [GT-07598, 3-(5-((4-(4-((5-chloro-4-((2-(isopropylsulfonyl)phenyl)amino)pyrimidin-2-yl)amino)-5-isopropoxy-2-methylphenyl)piperidin-1-yl)methyl)-6-fluoropyridin-3-yl)piperidine-2,6-dione], the IC50 in test [2] and in test [3] was 100 to 500 nM each time.

As for `COc1cc(N2CCC(N(C)Cc3cc(N4CCC(=O)NC4=O)ncc3F)CC2)ccc1Nc1ncc(Cl)c(Nc2ccccc2P(C)(C)=O)n1` [GT-07693, 1-(4-(((1-(4-((5-chloro-4-((2-(dimethylphosphoryl)phenyl)amino)pyrimidin-2-yl)amino)-3-methoxyphenyl)piperidin-4-yl)(methyl)amino)methyl)-5-fluoropyridin-2-yl)dihydropyrimidine-2,4(1H,3H)-dione], the IC50 in test [2] was 100 to 500 nM; in test [3], 10 to 50 nM; in test [5], 100 to 500 nM; in test [4] it was 100 to 500 nM.

For the molecule `CCc1cc2c(cc1N1CCC(N3CCN(Cc4cc(N5CCC(=O)NC5=O)ncc4F)CC3)CC1)C(C)(C)c1[nH]c3cc(C#N)ccc3c1C2=O` [GT-07700, 8-(4-(4-((2-(2,4-dioxotetrahydropyrimidin-1(2H)-yl)-5-fluoropyridin-4-yl)methyl)piperazin-1-yl)piperidin-1-yl)-9-ethyl-6,6-dimethyl-11-oxo-6,11-dihydro-5H-benzo[b]carbazole-3-carbonitrile], the IC50 fell in the range of 50 to 100 nM in test [2], 1 to 10 nM in test [3] and 500 to 1000 nM in test [4].

On to `CCc1cc2c(cc1N1CCC(N3CCN(Cc4ccnc(N5CCC(=O)NC5=O)c4)CC3)CC1)C(C)(C)c1[nH]c3cc(C#N)ccc3c1C2=O` [GT-07701, 8-(4-(4-((2-(2,4-dioxotetrahydropyrimidin-1(2H)-yl)pyridin-4-yl)methyl)piperazin-1-yl)piperidin-1-yl)-9-ethyl-6,6-dimethyl-11-oxo-6,11-dihydro-5H-benzo[b]carbazole-3-carbonitrile], for which the figures for the IC50 in test [2], in test [3] and in test [4] were 50 to 100 nM, 1 to 10 nM and 500 to 1000 nM, respectively.

As for `CCc1cc2c(cc1N1CCC(N3CCN(Cc4ccnc(C5CCC(=O)NC5=O)c4)CC3)CC1)C(C)(C)c1[nH]c3cc(C#N)ccc3c1C2=O` (centres unmarked) [GT-07704, 8-(4-(4-((2-(2,6-dioxopiperidin-3-yl)pyridin-4-yl)methyl)piperazin-1-yl)piperidin-1-yl)-9-ethyl-6,6-dimethyl-11-oxo-6,11-dihydro-5H-benzo[b]carbazole-3-carbonitrile], the values for the IC50 in test [2], in test [3] and in test [5] were 50 to 100 nM, 1 to 10 nM and 500 to 1000 nM, respectively.

Consider `CCc1cc2c(cc1N1CCC(N3CCN(Cc4ccc(C5CCC(=O)NC5=O)cn4)CC3)CC1)C(C)(C)c1[nH]c3cc(C#N)ccc3c1C2=O` (centres unmarked) [GT-07705, 8-(4-(4-((5-(2,6-dioxopiperidin-3-yl)pyridin-2-yl)methyl)piperazin-1-yl)piperidin-1-yl)-9-ethyl-6,6-dimethyl-11-oxo-6,11-dihydro-5H-benzo[b]carbazole-3-carbonitrile], for which the IC50 lay within 50 to 100 nM in test [2], 1 to 10 nM in test [3], 500 to 1000 nM in test [5] and 100 to 500 nM in test [4].

Consider `COc1cc(N2CCN(Cc3cc(N4CCC(=O)NC4=O)ncc3F)CC2)ccc1Nc1ncc(Cl)c(Nc2ccccc2P(C)(C)=O)n1` [GT-07707, 1-(4-((4-(4-((5-chloro-4-((2-(dimethylphosphoryl)phenyl)amino)pyrimidin-2-yl)amino)-3-methoxyphenyl)piperazin-1-yl)methyl)-5-fluoropyridin-2-yl)dihydropyrimidine-2,4(1H,3H)-dione], for which the IC50 lay within 100 to 500 nM in test [2], 10 to 50 nM in test [3], 500 to 1000 nM in test [5] and 500 to 1000 nM in test [4].

Take `COc1cc(N2CCN(Cc3ccnc(N4CCC(=O)NC4=O)c3)CC2)ccc1Nc1ncc(Cl)c(Nc2ccccc2P(C)(C)=O)n1` [GT-07708, 1-(4-((4-(4-((5-chloro-4-((2-(dimethylphosphoryl)phenyl)amino)pyrimidin-2-yl)amino)-3-methoxyphenyl)piperazin-1-yl)methyl)pyridin-2-yl)dihydropyrimidine-2,4(1H,3H)-dione]: the IC50 in test [2] was in the range of 100 to 500 nM; in test [3], 10 to 50 nM; in test [5], 100 to 500 nM; in test [4], 500 to 1000 nM.

As for `COc1cc(N2CCN(Cc3cncc(N4CCC(=O)NC4=O)c3)CC2)ccc1Nc1ncc(Cl)c(Nc2ccccc2P(C)(C)=O)n1` [GT-07709, 1-(5-((4-(4-((5-chloro-4-((2-(dimethylphosphoryl)phenyl)amino)pyrimidin-2-yl)amino)-3-methoxyphenyl)piperazin-1-yl)methyl)pyridin-3-yl)dihydropyrimidine-2,4(1H,3H)-dione], the results for the IC50 in test [2] and in test [3] were 500 to 1000 nM and 50 to 100 nM, respectively.

Take `COc1cc(N2CCN(Cc3cc(C4CCC(=O)NC4=O)cnc3F)CC2)ccc1Nc1ncc(Cl)c(Nc2ccccc2P(C)(C)=O)n1` (centres unmarked) [GT-07710, 3-(5-((4-(4-((5-chloro-4-((2-(dimethylphosphoryl)phenyl)amino)pyrimidin-2-yl)amino)-3-methoxyphenyl)piperazin-1-yl)methyl)-6-fluoropyridin-3-yl)piperidine-2,6-dione]: the IC50 was 500 to 1000 nM in test [2], 10 to 50 nM in test [3], 500 to 1000 nM in test [5] and 100 to 500 nM in test [4].

As to `COc1cc(N2CCN(Cc3ccnc(C4CCC(=O)NC4=O)c3)CC2)ccc1Nc1ncc(Cl)c(Nc2ccccc2P(C)(C)=O)n1` (centres unmarked) [GT-07712, 3-(4-((4-(4-((5-chloro-4-((2-(dimethylphosphoryl)phenyl)amino)pyrimidin-2-yl)amino)-3-methoxyphenyl)piperazin-1-yl)methyl)pyridin-2-yl)piperidine-2,6-dione], the figures for the IC50 in test [2], in test [3] and in test [5] were 100 to 500 nM, 10 to 50 nM and 500 to 1000 nM, respectively.

Values taken from EP4678638A1, “NEW E3 UBIQUITIN LIGASE LIGAND, PROTEIN DEGRADATION AGENT AND USE THEREOF” (priority 2023, dated 2024).
